Experiment in all cases: growth of human tumour cells (NCI), 48 h
Assay [1] relates to NCI-H23 lung.
The subject of assay [2] is LOX IMVI melanoma.
Assay [3] concerns MDA-MB-231 breast.
For assay [4], the system named is HCC-2998 colon.
Assay [5] concerns HS 578T breast.
The test system of assay [6] is MCF7 breast.
The subject of assay [7] is RPMI-8226 leukemia.
In assay [8] the test system is UACC-257 melanoma.
The test system of assay [9] is SNB-75 CNS.
For assay [10], the system named is HCT-116 colon.

Experimental findings from PubChem BioAssay (NCI) are described below.

Where “and” joins values, the source holds several entries; their conditions need not be identical. Equal values may be shown once.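 Five compound concentrations were applied to cells in 96-well plates for 48 hours; endpoints were derived by simple linear interpolation of the resulting dose-response curve. Abbreviation: GI50, concentration required for 50% inhibition of growth. The concentration for full growth arrest is given as TGI.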

Take `CC(C)=CCNc1ncnc2c1ncn2C1OC(CO)C(O)C1O` (stereo unspecified): the GI50 is 2.81 µM in assay [1]; 0.353 µM in assay [2]; 1.52 µM in [3]; 4.49 µM in assay [4]; 0.684 µM in assay [5]; 0.624 µM in assay [6]. For the same molecule, the GI50 in assay [7] is 2.91 µM; in assay [8], more than 792 µM; in assay [9], 2.52 µM; in [10], 0.499 µM. The TGI was determined as 125 µM in assay [1]; 1.5 µM in [2]; 9.33 µM in [3]; 94.3 µM in assay [4]; 4.33 µM in assay [5]; 12.3 µM in [6]. Moreover, the TGI in [7] is 25.2 µM; in [8], more than 1000 µM; in [9] it was 55.9 µM; in assay [10], 5.77 µM.

Take `C=C(c1nc2ccc(Cl)cc2[nH]c1=O)C(O)c1ccc(C(O)C(=O)c2nc3ccc(Cl)cc3[nH]c2=O)cc1` (stereo unspecified): the TGI in assay [1], in assay [2], in assay [3], in assay [4], in [5] and in [6] was more than 100 µM each time. The TGI in [7], in assay [8], in [9] and in assay [10] was more than 100 µM each time.

As to `C=C(CNCc1ccccc1)c1ccc(C(=O)Nc2ccccc2N)cc1`, the GI50 in assay [1] was 2.37 µM; in [2], 2.45 µM; in assay [3], 13.2 µM; in assay [4], 2.22 µM; in [5], 15.2 µM; in [6], 41.1 µM. Moreover, the GI50 is 3.08 µM in assay [7], 1.54 µM in assay [8], 38.2 µM in [9] and 15 µM in assay [10]. Also, the TGI in [1] was 8.23 µM; in assay [2] it was 8.88 µM; in [3], 54.5 µM; in assay [4], 5.4 µM; in [5], more than 100 µM; in assay [6] it was more than 100 µM. In addition, the TGI was more than 100 µM in [7], 15.5 µM in assay [8], 93 µM in assay [9] and more than 100 µM in [10].

Take `COc1cc(N(CCC#N)CCC#N)ccc1/C(N=Nc1ccc([N+](=O)[O-])cc1)=N/NC(=O)c1cc(Br)ccc1O`: the GI50 in assay [1] was 51.2 µg/mL; in assay [2], 29 µg/mL; in assay [3] it was 35.7 µg/mL; in assay [4], 40.9 µg/mL; in [5], 69.8 µg/mL; in assay [6], 42.3 µg/mL. Further, the GI50 is 38.2 µg/mL in assay [7], 52.3 µg/mL in assay [8], 28.4 µg/mL in [9] and 29.9 µg/mL in assay [10]. The TGI in [1] was more than 150 µg/mL; in assay [2], 110 µg/mL; in [3], 85.2 µg/mL; in [4] it was 78.7 µg/mL; in assay [5], more than 150 µg/mL; in assay [6], more than 150 µg/mL. Moreover, the TGI in assay [7] was more than 150 µg/mL; in [8] it was more than 150 µg/mL; in assay [9] it was 83.6 µg/mL; in assay [10], 91.9 µg/mL.

In the case of `COc1ccc(/C=C(/C(=O)N2CCN(c3ccccc3)CC2)c2cc(OC)c(OC)c(OC)c2)cc1O`, the GI50 is 0.938 µM in [1]; 0.398 µM in assay [2]; 0.378 µM in [3]; 0.499 µM in [4]; 0.712 µM in [5]; 0.307 µM in assay [6]. Further, the GI50 is 0.374 µM in assay [7], 30.6 µM in [8], 0.293 µM in assay [9] and 0.37 µM in assay [10]. Also, the TGI in assay [1] is more than 100 µM; in assay [2], more than 100 µM; in assay [3], 50.9 µM; in assay [4], more than 100 µM; in assay [5], more than 100 µM; in assay [6], more than 100 µM. The TGI is 21.4 µM in assay [7], more than 100 µM in assay [8], more than 100 µM in [9] and more than 100 µM in [10].

Regarding `O=C1c2cccc(NCCCNCCO)c2C(=O)c2cccc(NCCCNCCO)c21`, the TGI in [1] is 6.08 µM and 4.38 µM; in assay [2] it was 4.79 µM and 6.13 µM; in assay [3] it was 3.37 µM; in assay [4], 2.4 µM and 2.13 µM; in assay [5], 2.65 µM; in assay [6] it was 1.41 µM. Further, the TGI in [7] is 5.58 µM and 6.85 µM; in assay [8] it was 11.2 µM and 14 µM; in assay [9], 2.58 µM and 6.58 µM; in assay [10], 4.9 µM. The GI50 in assay [9] was 0.912 µM and 2.44 µM.
